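48-hour exposure; five concentrations; linearly interpolated endpoints. The concentration for 50% growth inhibition is given as GI50. The concentration for full growth arrest is given as TGI.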
Legend:
Assay in all cases: growth of human tumour cells (NCI), 48 h
786-0 renal = test system: 786-0 renal
A549 NSCLC = test system: A549 NSCLC
ACHN renal = test system: ACHN renal
CAKI-1 renal = test system: CAKI-1 renal
DU-145 prostate = test system: DU-145 prostate
EKVX NSCLC = test system: EKVX NSCLC
HCC-2998 colon = test system: HCC-2998 colon
HCT-15 colon = test system: HCT-15 colon
HL-60(TB) leukemia = test system: HL-60(TB) leukemia
HOP-62 NSCLC = test system: HOP-62 NSCLC
HOP-92 NSCLC = test system: HOP-92 NSCLC
HT29 colon = test system: HT29 colon
IGROV1 ovarian = test system: IGROV1 ovarian
K-562 leukemia = test system: K-562 leukemia
KM12 colon = test system: KM12 colon
M14 melanoma = test system: M14 melanoma
MALME-3M melanoma = test system: MALME-3M melanoma
MCF7 breast = test system: MCF7 breast
MDA-MB-231 breast = test system: MDA-MB-231 breast
MDA-MB-435 = test system: MDA-MB-435
MOLT-4 leukemia = test system: MOLT-4 leukemia
NCI-H226 lung = test system: NCI-H226 lung
NCI-H23 lung = test system: NCI-H23 lung
NCI-H460 lung = test system: NCI-H460 lung
NCI-H522 lung = test system: NCI-H522 lung
OVCAR-3 ovarian = test system: OVCAR-3 ovarian
OVCAR-4 ovarian = test system: OVCAR-4 ovarian
OVCAR-5 ovarian = test system: OVCAR-5 ovarian
OVCAR-8 ovarian = test system: OVCAR-8 ovarian
PC-3 prostate = test system: PC-3 prostate
RPMI-8226 leukemia = test system: RPMI-8226 leukemia
SF-268 CNS = test system: SF-268 CNS
SF-295 CNS = test system: SF-295 CNS
SF-539 CNS = test system: SF-539 CNS
SK-MEL-5 melanoma = test system: SK-MEL-5 melanoma
SN12C renal = test system: SN12C renal
SNB-19 CNS = test system: SNB-19 CNS
SNB-75 CNS = test system: SNB-75 CNS
SR leukemia = test system: SR leukemia
SW-620 colon = test system: SW-620 colon
T-47D breast = test system: T-47D breast
U251 CNS = test system: U251 CNS
UACC-257 melanoma = test system: UACC-257 melanoma
UO-31 renal = test system: UO-31 renal

**Q.** Which GI50 (786-0 renal) does the source give for `Cc1cc(N=C2NC(=O)S/C2=C\c2ccc(F)cc2)n[nH]1` here?
**A.** 3.01 µM

**Q.** And the TGI (786-0 renal)?
**A.** > 100 µM

**Q.** And the GI50 (A549 NSCLC)?
**A.** 3.07 µM

**Q.** And the TGI (A549 NSCLC)?
**A.** > 100 µM

**Q.** And the GI50 (ACHN renal)?
**A.** 3.36 µM

**Q.** And the TGI (ACHN renal)?
**A.** > 100 µM

**Q.** What about the GI50 (CAKI-1 renal) of the same compound?
**A.** 3.81 µM

**Q.** And the TGI (CAKI-1 renal)?
**A.** > 100 µM

**Q.** And the GI50 (DU-145 prostate)?
**A.** 5.33 µM

**Q.** And the TGI (DU-145 prostate)?
**A.** > 100 µM

**Q.** What about the GI50 (EKVX NSCLC) of the same compound?
**A.** 2.69 µM

**Q.** What about the TGI (EKVX NSCLC) of the same compound?
**A.** > 100 µM

**Q.** What about the GI50 (HCC-2998 colon) of the same compound?
**A.** 3.67 µM

**Q.** And the TGI (HCC-2998 colon)?
**A.** > 100 µM

**Q.** What about the GI50 (HCT-15 colon) of the same compound?
**A.** 2.47 µM

**Q.** What about the TGI (HCT-15 colon) of the same compound?
**A.** > 100 µM

**Q.** What about the GI50 (HL-60(TB) leukemia) of the same compound?
**A.** 3.3 µM

**Q.** And the TGI (HL-60(TB) leukemia)?
**A.** > 100 µM

**Q.** What about the GI50 (HOP-62 NSCLC) of the same compound?
**A.** 2.59 µM

**Q.** And the TGI (HOP-62 NSCLC)?
**A.** > 100 µM

**Q.** What about the GI50 (HOP-92 NSCLC) of the same compound?
**A.** 2.62 µM

**Q.** What about the TGI (HOP-92 NSCLC) of the same compound?
**A.** > 100 µM

**Q.** What about the GI50 (HT29 colon) of the same compound?
**A.** 4.09 µM

**Q.** And the TGI (HT29 colon)?
**A.** > 100 µM

**Q.** And the GI50 (IGROV1 ovarian)?
**A.** 2.59 µM

**Q.** And the TGI (IGROV1 ovarian)?
**A.** > 100 µM

**Q.** What about the GI50 (K-562 leukemia) of the same compound?
**A.** 3.32 µM

**Q.** And the TGI (K-562 leukemia)?
**A.** > 100 µM

**Q.** What about the GI50 (KM12 colon) of the same compound?
**A.** 4.13 µM

**Q.** What about the TGI (KM12 colon) of the same compound?
**A.** > 100 µM

**Q.** And the GI50 (M14 melanoma)?
**A.** 2.63 µM

**Q.** What about the TGI (M14 melanoma) of the same compound?
**A.** > 100 µM

**Q.** And the GI50 (MALME-3M melanoma)?
**A.** 3.47 µM

**Q.** And the TGI (MALME-3M melanoma)?
**A.** > 100 µM

**Q.** What about the GI50 (MCF7 breast) of the same compound?
**A.** 2.36 µM

**Q.** And the TGI (MCF7 breast)?
**A.** > 100 µM

**Q.** What about the GI50 (MDA-MB-231 breast) of the same compound?
**A.** 2.95 µM

**Q.** What about the TGI (MDA-MB-231 breast) of the same compound?
**A.** > 100 µM

**Q.** What about the GI50 (MDA-MB-435) of the same compound?
**A.** 3 µM

**Q.** What about the TGI (MDA-MB-435) of the same compound?
**A.** > 100 µM

**Q.** What about the GI50 (MOLT-4 leukemia) of the same compound?
**A.** 2.93 µM

**Q.** What about the TGI (MOLT-4 leukemia) of the same compound?
**A.** > 100 µM

**Q.** What about the GI50 (NCI-H226 lung) of the same compound?
**A.** 2.9 µM

**Q.** And the TGI (NCI-H226 lung)?
**A.** > 100 µM

**Q.** What about the GI50 (NCI-H23 lung) of the same compound?
**A.** 3.63 µM

**Q.** And the TGI (NCI-H23 lung)?
**A.** > 100 µM

**Q.** And the GI50 (NCI-H460 lung)?
**A.** 3.13 µM

**Q.** What about the TGI (NCI-H460 lung) of the same compound?
**A.** > 100 µM

**Q.** What about the GI50 (NCI-H522 lung) of the same compound?
**A.** 2.57 µM

**Q.** What about the TGI (NCI-H522 lung) of the same compound?
**A.** > 100 µM

**Q.** What about the GI50 (OVCAR-3 ovarian) of the same compound?
**A.** 3.13 µM

**Q.** And the TGI (OVCAR-3 ovarian)?
**A.** > 100 µM

**Q.** What about the GI50 (OVCAR-4 ovarian) of the same compound?
**A.** 3.85 µM

**Q.** And the TGI (OVCAR-4 ovarian)?
**A.** > 100 µM

**Q.** What about the GI50 (OVCAR-5 ovarian) of the same compound?
**A.** 3.65 µM

**Q.** What about the TGI (OVCAR-5 ovarian) of the same compound?
**A.** > 100 µM

**Q.** What about the GI50 (OVCAR-8 ovarian) of the same compound?
**A.** 2.76 µM

**Q.** And the TGI (OVCAR-8 ovarian)?
**A.** > 100 µM

**Q.** And the GI50 (PC-3 prostate)?
**A.** 3.37 µM

**Q.** And the TGI (PC-3 prostate)?
**A.** > 100 µM

**Q.** And the GI50 (RPMI-8226 leukemia)?
**A.** 2.27 µM

**Q.** What about the TGI (RPMI-8226 leukemia) of the same compound?
**A.** 6.34 µM

**Q.** And the GI50 (SF-268 CNS)?
**A.** 4.48 µM

**Q.** And the TGI (SF-268 CNS)?
**A.** > 100 µM

**Q.** And the GI50 (SF-295 CNS)?
**A.** 2.79 µM

**Q.** And the TGI (SF-295 CNS)?
**A.** > 100 µM

**Q.** What about the GI50 (SF-539 CNS) of the same compound?
**A.** 2.84 µM

**Q.** And the TGI (SF-539 CNS)?
**A.** > 100 µM

**Q.** And the GI50 (SK-MEL-5 melanoma)?
**A.** 3.16 µM

**Q.** What about the TGI (SK-MEL-5 melanoma) of the same compound?
**A.** > 100 µM

**Q.** And the GI50 (SN12C renal)?
**A.** 3.81 µM

**Q.** And the TGI (SN12C renal)?
**A.** > 100 µM

**Q.** What about the GI50 (SNB-19 CNS) of the same compound?
**A.** 3.2 µM

**Q.** What about the TGI (SNB-19 CNS) of the same compound?
**A.** > 100 µM

**Q.** What about the GI50 (SNB-75 CNS) of the same compound?
**A.** 2.12 µM

**Q.** What about the TGI (SNB-75 CNS) of the same compound?
**A.** > 100 µM

**Q.** And the GI50 (SR leukemia)?
**A.** 2.35 µM

**Q.** What about the TGI (SR leukemia) of the same compound?
**A.** > 100 µM

**Q.** And the GI50 (SW-620 colon)?
**A.** 3.92 µM

**Q.** And the TGI (SW-620 colon)?
**A.** > 100 µM

**Q.** And the GI50 (T-47D breast)?
**A.** 2.58 µM

**Q.** And the TGI (T-47D breast)?
**A.** > 100 µM

**Q.** And the GI50 (U251 CNS)?
**A.** 2.35 µM

**Q.** And the TGI (U251 CNS)?
**A.** > 100 µM

**Q.** And the GI50 (UACC-257 melanoma)?
**A.** 2.82 µM

**Q.** And the TGI (UACC-257 melanoma)?
**A.** > 100 µM

**Q.** What about the GI50 (UO-31 renal) of the same compound?
**A.** 2.33 µM

**Q.** And the TGI (UO-31 renal)?
**A.** > 100 µM

Source: PubChem BioAssay (NCI)
